Data as given in patent publication EP0465091B1, “Use of 3-oxygermylpropionic acid to treat cold syndrome” (SANWA KAGAKU KENKYUSHO CO., LTD., priority 1990, dated 1992).

Key:
[1] = see JP-A-57-53800 and US-A-4309412; cited from earlier work
[2] = system: rats; assay: Antipyretic activity in dry yeast-induced fever (rectal temperature); format: in vivo; conditions: oral; for Changes in mean temperature, Time 1 hr: rectal temperature 1 hr from dosing; for Changes in mean temperature, Time 2 hr: rectal temperature 2 hr from dosing; for Changes in mean temperature, Time 4 hr: rectal temperature 4 hr from dosing; for Changes in mean temperature, Time 8 hr: rectal temperature 8 hr from dosing; for Changes in mean temperature, Time 0 hr: rectal temperature at 0 hr (18 hours after yeast, at dosing)
Procedure: A 20 % suspension of dry yeast was subcutaneously injected into a Wister line of (masculine) rats (weights: 170-200 g) at a dose of 1 ml/100 g to bring their rectal temperatures up to higher than 39°C(39.13 0.02 ) after the lapse of 18 hours. The drugs to be tested were orally administrated to these rats, six for each group, to measure their rectal temperatures at 1, 2, 4 and 8 hours from dosing. The drugs used were: • (1) 75 mg/Kg (50 mg/Kg calculated as 3-OGP) of the primary composition according to Preparation Example; • (2) 1 mg/Kg of indomethacin (IND); • (3) 5 mg/Kg of indomethacin (IND); • (4) 75 mg/Kg (50 mg/Kg calculated as 3-OGP) of the primary composition according to Preparation Example 1 + 1 mg/Kg of indomethacin - administer at once; and • (5) No drug - control.

[3] = primary composition 75mg/Kg, IND 1mg/Kg, or both

| Compound | stability in the presence of water [1] | Changes in mean temperature, Time 1 hr ([2]; IND 5mg/Kg) | Changes in mean temperature, Time 1 hr [2, 3] | Changes in mean temperature, Time 2 hr ([2]; IND 5mg/Kg) | Changes in mean temperature, Time 2 hr [2, 3] | Changes in mean temperature, Time 4 hr ([2]; IND 5mg/Kg) | Changes in mean temperature, Time 4 hr [2, 3] | Changes in mean temperature, Time 8 hr ([2]; IND 5mg/Kg) | Changes in mean temperature, Time 8 hr [2, 3] | Changes in mean temperature, Time 0 hr ([2]; IND 5mg/Kg) | Changes in mean temperature, Time 0 hr [2, 3] |
| --- | --- | --- | --- | --- | --- | --- | --- | --- | --- | --- | --- |
| 3-oxygermylpropionic acid [3-OGP] | so unstable in the presence of water that its pharmacological activity decreases drastically |  |  |  |  |  |  |  |  |  |  |
| COc1ccc2c(c1)c(CC(=O)O)c(C)n2C(=O)c1ccc(Cl)cc1 [IND, Indomethacin] |  | 38.35 °C | 38.81 °C | 37.67 °C | 38.65 °C | 37.75 °C | 38.44 °C | 37.94 °C | 38.30 °C | 39.13 °C | 39.13 °C |
